From patent US20260166039A1 (SCHRÖDINGER, INC., priority 2022, published 2026)

These compounds were tested against T1, Wee1 kinase domain (Homo sapiens, UniProt P30291) (assay: Wee1 Kinase Biochemical Assay (ADP-Glo)). Settings: Wee1 kinase domain, 15 uM ATP, ADP-Glo.
T1 construct: Wee1 kinase domain was purchased from Carna (catalog #05-177); purchased Carna 05-177
Outline: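 The reaction mix held 1 nM Wee1 kinase domain, 15 uM ATP and 2 ng/mL Poly(Lys,Tyr 4:1) substrate and was left for 4 hours at 25 °C. ADP production was then measured with ADP-Glo, and percent inhibition was derived relative to DMSO and a saturating Wee1 inhibitor.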

T1 sequence (P30291 299-569 limits assumed): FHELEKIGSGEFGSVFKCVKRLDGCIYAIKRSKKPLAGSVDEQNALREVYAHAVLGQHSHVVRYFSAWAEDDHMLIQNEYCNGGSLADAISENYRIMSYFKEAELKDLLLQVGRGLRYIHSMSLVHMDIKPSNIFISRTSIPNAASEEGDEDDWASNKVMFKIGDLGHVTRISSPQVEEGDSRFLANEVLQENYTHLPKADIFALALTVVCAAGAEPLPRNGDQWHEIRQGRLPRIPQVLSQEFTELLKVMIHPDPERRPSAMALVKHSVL

IC50 [nM]	SMILES
100 to 1000	CN=S1(=O)CCN(c2ccc(Nc3ncc4c(n3)N(c3cccc(CNC)n3)[C@H]3CC(C)(C)OC[C@@]43C)cc2)CC1 (single isomer, unassigned) [Example 66]
100 to 1000	C[C@H]1COC(=O)N1c1cccc(N2c3nc(Nc4ccc(O[C@H]5CCN(C)C5)nc4)ncc3[C@]3(C)COC(C)(C)C[C@H]23)n1 (single isomer, unassigned) [Example 280]
10 to 100	CNCc1cccc(N2c3nc(Nc4ccc(N5CCOCC5)c(Cl)c4)ncc3[C@]3(C)COC(C)(C)C[C@H]23)n1 (single isomer, unassigned) [Example 13]
100 to 1000	CN1C[C@@H]2C[C@H]1CN2c1ccc(Nc2ncc3c(n2)N(c2cccc(N=S(C)(C)=O)n2)[C@H]2CC(C)(C)OC[C@@]32C)cc1F (single isomer, unassigned) [Example 179]
100 to 1000	CN1C[C@H]2C[C@@H]1CN2c1ccc(Nc2ncc3c(n2)N(c2cccc(N=S(C)(C)=O)n2)[C@H]2CC(C)(C)OC[C@@]32C)cc1F (single isomer, unassigned) [Example 175]
10 to 100	C[C@H]1COC(=O)N1c1cccc(N2c3nc(Nc4ccc(C5CN(C)C5)cc4)ncc3[C@]3(C)COC(C)(C)C[C@H]23)n1 (single isomer, unassigned) [Example 309]
100 to 1000	CN1CC[C@H](Oc2ccc(Nc3ncc4c(n3)N(c3cccc(N=S(C)(C)=O)n3)[C@H]3CC(C)(C)OC[C@@]43C)cc2)C1 (single isomer, unassigned) [Example 158]
10 to 100	CN[C@@H]1CCN(c2ccc(Nc3ncc4c(n3)N(c3cccc(N5C(=O)OC[C@@H]5C)n3)[C@H]3CC(C)(C)OC[C@@]43C)cc2)C1 (single isomer, unassigned) [Example 318]
10 to 100	CNCc1cccc(N2c3nc(Nc4ccc(N5CCCCC5)cc4)ncc3[C@]3(C)COC(C)(C)C[C@H]23)n1 (single isomer, unassigned) [Example 1]
10 to 100	CN(C)C(=O)c1ccc(Nc2ncc3c(n2)N(c2cccc(N=S(C)(C)=O)n2)[C@H]2CC(C)(C)OC[C@@]32C)cc1 (single isomer, unassigned) [Example 142]
10 to 100	CNCc1cccc(N2c3nc(Nc4ccc(C5CCOCC5)cc4)ncc3[C@]3(C)COC(C)(C)C[C@H]23)n1 (single isomer, unassigned) [Example 36]
≥ 1000	CNCc1cccc(N2c3nc(Nc4ccc(N5C(=O)CC[C@@H]5C)cc4)ncc3[C@]3(C)COC(C)(C)C[C@H]23)n1 (single isomer, unassigned) [Example 27]
100 to 1000	C[C@H]1COC(=O)N1c1cccc(N2c3nc(Nc4ccc(O[C@@H]5CCN(C)C5)nc4)ncc3[C@]3(C)COC(C)(C)C[C@H]23)n1 (single isomer, unassigned) [Example 282]
100 to 1000	CNCc1cccc(N2c3nc(Nc4ccc(N5CCCOCC5)cc4)ncc3[C@]3(C)COC(C)(C)C[C@H]23)n1 (single isomer, unassigned) [Example 17]
10 to 100	CNCc1cccc(N2c3nc(Nc4ccc([C@@H]5CC(=O)N(C)C5)cc4)ncc3[C@]3(C)COC(C)(C)C[C@H]23)n1 (single isomer, unassigned) [Example 70]
≥ 1000	CN1Cc2cc(Nc3ncc4c(n3)N(c3cccc(N=S(C)(C)=O)n3)[C@H]3CC(C)(C)OC[C@@]43C)cnc2C1 (single isomer, unassigned) [Example 187]
10 to 100	CNCc1cccc(N2c3nc(Nc4ccc(N5CC6CC5CO6)cc4)ncc3[C@]3(C)COC(C)(C)C[C@H]23)n1 (stereo in doubt) [Example 42, (4bS,8aS)-N-(4-((1R,4R)-2-oxa-5-azabicyclo[2.2.1]heptan-5-yl)phenyl)-4b,7,7-trimethyl-9-(6-((methylamino)methyl)pyridin-2-yl)-4b,5,7,8,8a,9-hexahydropyrano[3′,4′:4,5]pyrrolo[2,3-d]pyrimidin-2-amine]
< 10	CC1(C)C[C@H]2N(c3cccc([C@@H]4CCCN4)n3)c3nc(Nc4ccn(C5CCOCC5)c(=O)c4)ncc3[C@@]2(C)CO1 (single isomer, unassigned) [Example 392]
100 to 1000	CC1(C)C[C@@H]2N(c3cccc(N=S(C)(C)=O)n3)c3nc(Nc4ccc(O[C@H]5CCNC5)cc4)ncc3[C@]2(C)CO1 (single isomer, unassigned) [Example 154]
10 to 100	Cc1cc(Nc2ncc3c(n2)N(c2cccc(N4C(=O)OC[C@@H]4C)n2)[C@H]2CC(C)(C)OC[C@@]32C)ccc1O[C@@H]1CCNC1 (single isomer, unassigned) [Example 336]
10 to 100	C[C@H]1COC(=O)N1c1cccc(N2c3nc(Nc4ccc([C@@H]5CCNC5)nc4)ncc3[C@]3(C)COC(C)(C)C[C@H]23)n1 (single isomer, unassigned) [Example 256]
< 10	CNCc1cccc(N2c3nc(Nc4ccc([C@H]5CCCO5)cc4)ncc3[C@@]3(C)COC(C)(C)C[C@@H]23)n1 (single isomer, unassigned) [Example 60]

Same assay, conditions: class symbols; 1 nM Wee1 enzyme, 15 uM ATP, 4 hours at 25° C.

IC50 [nM]	SMILES
100 to 1000	CC1(C)C[C@@H]2N(c3cccc([C@H]4CCNC4)n3)c3nc(Nc4ccc(N5CCOCC5)cc4)ncc3[C@]2(C)CO1 (single isomer, unassigned) [Example 541]
< 10	CC[C@]1(O)CCc2ccc(N3c4nc(Nc5ccc(N6C[C@H]7C[C@@H]6CN7C)cc5)ncc4[C@@]4(C)COC(C)(C)C[C@@H]34)nc21 [Example 789, (S)-7-ethyl-2-((4bR,8aR)-4b,7,7-trimethyl-2-((4-((1R,4R)-5-methyl-2,5-diazabicyclo[2.2.1]heptan-2-yl)phenyl)amino)-4b,7,8,8a-tetrahydropyrano[3′,4′:4,5]pyrrolo[2,3-d]pyrimidin-9(5H)-yl)-6,7-dihydro-5H-cyclopenta[b]pyridin-7-ol]
10 to 100	CN1CC[C@H](c2ccc(Nc3ncc4c(n3)N(c3cccc(N5CCCC5=O)n3)[C@H]3CC(C)(C)OC[C@@]43C)cc2)C1 [Example 635, 1-(6-((4bS,8aS)-4b,7,7-trimethyl-2-((4-((R)-1-methylpyrrolidin-3-yl)phenyl)amino)-4b,7,8,8a-tetrahydropyrano[3′,4′:4,5]pyrrolo[2,3-d]pyrimidin-9(5H)-yl)pyridin-2-yl)pyrrolidin-2-one]
10 to 100	CC1(C)C[C@H]2N(c3cccc(C(C)(C)O)n3)c3nc(Nc4ccc(O[C@@H]5CCNC5)cc4)ncc3[C@@]2(C)CO1 (single isomer, unassigned) [Example 418]
10 to 100	CN1CCC(c2ccc(Nc3ncc4c(n3)N(c3cccc(N5CCOC5=O)n3)[C@H]3CC(C)(C)OC[C@@]43C)cc2)CC1 (single isomer, unassigned) [Example 590]
10 to 100	CC1(C)CC2N(c3cccc([C@@H]4COCCN4)n3)c3nc(Nc4ccc(N5CCOCC5)cc4)ncc3C2(C)CO1 (stereo in doubt) [Example 733, (4bS,8aS)-4b,7,7-trimethyl-9-(6-((R)-morpholin-3-yl)pyridin-2-yl)-N-(4-morpholinophenyl)-4b,5,7,8,8a,9-hexahydropyrano[3′,4′:4,5]pyrrolo[2,3-d]pyrimidin-2-amine]
10 to 100	CN[C@@H](C)c1cccc(N2c3nc(Nc4ccc(N5CCOCC5)cc4)ncc3[C@]3(C)COC(C)(C)C[C@H]23)n1 (single isomer, unassigned) [Example 538]
100 to 1000	CC1(C)C[C@@H]2N(c3cccc(N4CCOC4=O)n3)c3nc(Nc4ccc(N5CCNCC5)cc4)ncc3[C@]2(C)CO1 (single isomer, unassigned) [Example 600]
100 to 1000	CN1C[C@@H]2C[C@H]1CN2c1ccc(Nc2ncc3c(n2)N(c2cccc(N4CCCC4=O)n2)[C@H]2CC(C)(C)OC[C@@]32C)cc1F [Example 641, 1-(6-((4bS,8aS)-2-((3-fluoro-4-((1S,4S)-5-methyl-2,5-diazabicyclo[2.2.1]heptan-2-yl)phenyl)amino)-4b,7,7-trimethyl-4b,7,8,8a-tetrahydropyrano[3′,4′:4,5]pyrrolo[2,3-d]pyrimidin-9(5H)-yl)pyridin-2-yl)pyrrolidin-2-one]
< 10	CC1(C)C[C@H]2N(c3cccc(N=S(C)(C)=O)n3)c3nc(Nc4ccc(N5CCN6CCC5C6)cc4)ncc3[C@@]2(C)CO1 (single isomer, unassigned) [Example 511]
< 10	CN1CC[C@H](n2ccc(Nc3ncc4c(n3)N(c3cccc(N=S(C)(C)=O)n3)[C@@H]3CC(C)(C)OC[C@]43C)cc2=O)C1 [Example 805, 4-(((4bR,8aR)-9-(6-((dimethyl(oxo)-16-sulfaneylidene)amino)pyridin-2-yl)-4b,7,7-trimethyl-4b,5,7,8,8a,9-hexahydropyrano[3′,4′:4,5]pyrrolo[2,3-d]pyrimidin-2-yl)amino)-1-((S)-1-methylpyrrolidin-3-yl)pyridin-2(1H)-one]
10 to 100	CC1(C)C[C@H]2N(c3cccc(N=S(C)(C)=O)n3)c3nc(NC(=O)c4cccnc4)ncc3[C@@]2(C)CO1 (single isomer, unassigned) [Example 405]
10 to 100	CNCc1cccc(N2c3nc(NC(=O)C4CC4)ncc3[C@@]3(C)COC(C)(C)C[C@@H]23)n1 (single isomer, unassigned) [Example 762]
10 to 100	CC1(C)C[C@@H]2N(c3cccc(N4CCCC4=O)n3)c3nc(Nc4ccc([C@@H]5CCNC5)cc4)ncc3[C@]2(C)CO1 [Example 633, 1-(6-((4bS,8aS)-4b,7,7-trimethyl-2-((4-((S)-pyrrolidin-3-yl)phenyl)amino)-4b,7,8,8a-tetrahydropyrano[3′,4′:4,5]pyrrolo[2,3-d]pyrimidin-9(5H)-yl)pyridin-2-yl)pyrrolidin-2-one]
≥ 1000	CNCc1ccnc(N2c3nc(Nc4ccc(N5CCOCC5)cc4)ncc3[C@]3(C)COC(C)(C)C[C@H]23)c1 (single isomer, unassigned) [Example 548]
10 to 100	CNCc1cccc(N2c3nc(Nc4cnnc(C)c4)ncc3[C@@]3(C)COC(C)(C)C[C@@H]23)n1 (single isomer, unassigned) [Example 478]
